Test results reported in PubChem BioAssay AID270 (DTP/NCI, 2004).
“And” between values parts separate entries of the source, which are not always exact repeats. Equal entries are not always repeated. Inconclusive results are not listed.

Tested on: BDF1 mice, s.c. Lewis lung carcinoma, T/C %
Test: NCI In Vivo Anticancer Drug Screen. Data for tumor model Lewis Lung Carcinoma (subcutaneous) in B6D2F1 (BDF1) mice
Experimental: The antitumor activity of compounds was measured in mice bearing transplantable tumors. Survival or tumor size were measured and the results are expressed as the measurement made in the treated group (T) divided by the measurement made in the vehicle treated control group (C). The tumor model used in this assay is Lewis Lung Carcinoma (subcutaneous) in B6D2F1 (BDF1) mice

[1] = endpoint: mean tumor weight, dose: 1.25 mg/kg/injection, schedule: Q01DX011 (ip), vehicle: saline, higher = larger tumour
[2] = endpoint: mean tumor weight, dose: 2.5 mg/kg/injection, schedule: Q01DX011 (ip), vehicle: saline, higher = larger tumour

Q: Which results are given for `COc1cccc2c1C(=O)c1c(O)c3c(c(O)c1C2=O)C[C@@](O)(C(C)=O)C[C@@H]3OC1CC(N)C(O)C(C)O1` (stereo partly drawn)?
A: T/C (endpoint: mean tumor weight, dose: 0.6 mg/kg/injection, schedule: Q01DX011 (ip), vehicle: saline, higher = larger tumour): 85 % of control; T/C (endpoint: mean tumor weight, dose: 1.0 mg/kg/injection, schedule: Q01DX011 (sc), vehicle: steriod suspending solution, higher = larger tumour): 116 % of control; T/C (endpoint: mean tumor weight, dose: 1.2 mg/kg/injection, schedule: Q01DX011 (ip), vehicle: saline, higher = larger tumour): 89 % of control; T/C (endpoint: mean tumor weight, dose: 1.8 mg/kg/injection, schedule: Q01DX011 (ip), vehicle: saline, higher = larger tumour): 69 % of control and 81 % of control; T/C (endpoint: mean tumor weight, dose: 2.7 mg/kg/injection, schedule: Q01DX011 (ip), vehicle: saline, higher = larger tumour): 56 % of control; T/C (endpoint: mean tumor weight, dose: 5.0 mg/kg/injection, schedule: Q01DX011 (sc), vehicle: steriod suspending solution, higher = larger tumour): 81 % of control; T/C (endpoint: median survival time, dose: 0.12 mg/kg/injection, schedule: Q01DX009 (ip), vehicle: saline, higher = longer survival): 101 % of control and 104 % of control and 110 % of control; T/C (endpoint: median survival time, dose: 125.0 micrograms/kg/injection, schedule: Q01DX009 (ip), vehicle: saline, higher = longer survival): 92 % of control; T/C (endpoint: median survival time, dose: 500.0 micrograms/kg/injection, schedule: Q01DX009 (ip), vehicle: saline, higher = longer survival): 100 % of control; T/C (endpoint: median survival time, dose: 1000.0 micrograms/kg/injection, schedule: Q01DX009 (ip), vehicle: saline, higher = longer survival): 90 % of control; T/C (endpoint: median survival time, dose: 2000.0 micrograms/kg/injection, schedule: Q01DX009 (ip), vehicle: saline, higher = longer survival): 97 % of control

Q: What does the source list for `CC[C@H]1CN2CCc3cc(OC)c(OC)cc3[C@@H]2C[C@@H]1C[C@H]1NCCc2cc(O)c(OC)cc21`?
A: T/C [1]: 94 % of control; T/C [2]: 55 % of control; T/C (endpoint: mean tumor weight, dose: 5.0 mg/kg/injection, schedule: Q01DX011 (ip), vehicle: saline, higher = larger tumour): 37 % of control

Q: For `O=NN(CCCl)C(=O)Nc1ccc(Br)cc1`, which T/C (endpoint: median survival time, dose: 1.25 mg/kg/injection, schedule: Q01DX009 (ip), vehicle: Klucel (hydroxypropylcellulose) (HPC), higher = longer survival) is on record?
A: 97 % of control

Q: And the T/C (endpoint: median survival time, dose: 2.5 mg/kg/injection, schedule: Q01DX009 (ip), vehicle: Klucel (hydroxypropylcellulose) (HPC), higher = longer survival)?
A: 101 % of control

Q: What about the T/C (endpoint: median survival time, dose: 5.0 mg/kg/injection, schedule: Q01DX009 (ip), vehicle: Klucel (hydroxypropylcellulose) (HPC), higher = longer survival) of the same molecule?
A: 88 % of control

Q: What about the T/C (endpoint: median survival time, dose: 9.4 mg/kg/injection, schedule: Q01DX009 (ip), vehicle: Klucel (hydroxypropylcellulose) (HPC), higher = longer survival) of the same molecule?
A: 108 % of control

Q: And the T/C (endpoint: median survival time, dose: 10.0 mg/kg/injection, schedule: Q01DX009 (ip), vehicle: Klucel (hydroxypropylcellulose) (HPC), higher = longer survival)?
A: 102 % of control

Q: For `NC(=O)N(CCCl)N=O`, which T/C (endpoint: mean tumor weight, dose: 0.63 mg/kg/injection, schedule: Q01DX011 (ip), vehicle: saline, higher = larger tumour) is on record?
A: 80 % of control

Q: What about the T/C [1] of the same molecule?
A: 53 % of control

Q: What about the T/C [2] of the same molecule?
A: 10 % of control

Q: What about the T/C (endpoint: median survival time, dose: 1.0 mg/kg/injection, schedule: Q01DX001 (ip), vehicle: saline + alcohol, higher = longer survival) of the same molecule?
A: 120 % of control

Q: Which results are given for `O=C(Nc1ccc(C(=O)O)cc1)Oc1ccc(N(CCCl)CCCl)cc1`?
A: T/C (endpoint: median survival time, dose: 6.25 mg/kg/injection, schedule: Q01DX009 (ip), vehicle: Klucel (hydroxypropylcellulose) (HPC), higher = longer survival): 100 % of control; T/C (endpoint: median survival time, dose: 12.5 mg/kg/injection, schedule: Q01DX009 (ip), vehicle: Klucel (hydroxypropylcellulose) (HPC), higher = longer survival): 100 % of control; T/C (endpoint: median survival time, dose: 25.0 mg/kg/injection, schedule: Q01DX009 (ip), vehicle: Klucel (hydroxypropylcellulose) (HPC), higher = longer survival): 88 % of control

Q: What does the source list for `O=C(O)CP(=O)(O)O`?
A: T/C (endpoint: median survival time, dose: 4.0 mg/kg/injection, schedule: Q01DX009 (ip), vehicle: saline, higher = longer survival): 105 % of control; T/C (endpoint: median survival time, dose: 8.0 mg/kg/injection, schedule: Q01DX009 (ip), vehicle: saline, higher = longer survival): 97 % of control; T/C (endpoint: median survival time, dose: 16.0 mg/kg/injection, schedule: Q01DX009 (ip), vehicle: saline, higher = longer survival): 106 % of control; T/C (endpoint: median survival time, dose: 32.0 mg/kg/injection, schedule: Q01DX009 (ip), vehicle: saline, higher = longer survival): 91 % of control; T/C (endpoint: median survival time, dose: 64.0 mg/kg/injection, schedule: Q01DX009 (ip), vehicle: saline, higher = longer survival): 87 % of control; T/C (endpoint: median survival time, dose: 128.0 mg/kg/injection, schedule: Q01DX009 (ip), vehicle: saline, higher = longer survival): 86 % of control

Q: With `CS(=O)(=O)OCC#CCOS(C)(=O)=O` as the molecule, how does the T/C (endpoint: mean tumor weight, dose: 16.0 mg/kg/injection, schedule: Q01DX011 (ip), vehicle: saline, higher = larger tumour) read?
A: 91 % of control

Q: What about the T/C (endpoint: mean tumor weight, dose: 32.0 mg/kg/injection, schedule: Q01DX011 (ip), vehicle: saline, higher = larger tumour) of the same molecule?
A: 63 % of control

Q: `CNC1C(O)C(NC)C2OC3(O)C(=O)CC(C)OC3OC2C1O` (stereo not drawn) was tested. Which T/C (endpoint: median survival time, dose: 25.0 mg/kg/injection, schedule: Q01DX009 (ip), vehicle: saline, higher = longer survival) did it give?
A: 111 % of control

Q: And the T/C (endpoint: median survival time, dose: 50.0 mg/kg/injection, schedule: Q01DX009 (ip), vehicle: saline, higher = longer survival)?
A: 96 % of control

Q: And the T/C (endpoint: median survival time, dose: 100.0 mg/kg/injection, schedule: Q01DX009 (ip), vehicle: saline, higher = longer survival)?
A: 110 % of control

Q: With `CNC(=S)N/N=C/c1ccc([N+](=O)[O-])s1` as the molecule, how does the T/C (endpoint: median survival time, dose: 25.0 mg/kg/injection, schedule: Q01DX009 (ip), vehicle: saline with Tween-80, higher = longer survival) read?
A: 121 % of control
